Source: ChEMBL document CHEMBL1201862, “PubChem BioAssay data set” (2004)
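Assay format: 96-well plates, 48-hour exposure. The concentration for 50% growth inhibition is given as GI50.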 Activity calls are given as the source filed them. No stated cut-off is given here; in the data, active = GI50 up to about 1.1 µM and inactive = higher.

What was measured:
Assay in all cases: DTP human tumour cell line panel, 48 h
[1] = tested on: SF-295
[2] = tested on: SNB-19
[3] = tested on: CAKI-1
[4] = tested on: UO-31
[5] = tested on: UACC-62
[6] = tested on: LXFL 529
[7] = tested on: HL-60
[8] = tested on: SK-MEL-28
[9] = tested on: HCC 2998
[10] = tested on: KM-20L2
[11] = tested on: SK-MEL-5
[12] = tested on: K562
[13] = tested on: SNB-75
[14] = tested on: KM12
[15] = tested on: RXF 631
[16] = tested on: COLO 205
[17] = tested on: DMS-273
[18] = tested on: IGROV-1
[19] = tested on: SNB-78
[20] = tested on: SF-268
[21] = tested on: HCT-15
[22] = tested on: Malme-3M
[23] = tested on: HT-29
[24] = tested on: DMS-114
[25] = tested on: EKVX
[26] = tested on: A498
[27] = tested on: HOP-18
[28] = tested on: M14
[29] = tested on: SK-OV-3
[30] = tested on: SW-620
[31] = tested on: MOLT-4
[32] = tested on: U-251
[33] = tested on: OVCAR-8
[34] = tested on: LOX IMVI
[35] = tested on: TK-10
[36] = tested on: UACC-257
[37] = tested on: NCI-H23
[38] = tested on: ACHN
[39] = tested on: SK-MEL-2
[40] = tested on: RPMI-8226
[41] = tested on: SF-539
[42] = tested on: OVCAR-5
[43] = tested on: SN12C
[44] = tested on: NCI-H522
[45] = tested on: OVCAR-4
[46] = tested on: A549
[47] = tested on: XF498
[48] = tested on: RXF 393
[49] = tested on: CCRF-CEM
[50] = tested on: SR
[51] = tested on: HCT-116
[52] = tested on: HOP-92
[53] = tested on: OVCAR-3
[54] = tested on: NCI-H226
[55] = tested on: HOP-62
[56] = tested on: M19-MEL
[57] = tested on: DLD-1
[58] = tested on: 786-0
[59] = tested on: NCI-H460

How did the GI50 [1] turn out when `O=C(NN1C(=O)CSC1c1cccc(F)c1)c1ccncc1` (configuration not stated) was run?
The GI50 was > 100 µM (inactive).

And the GI50 [2]?
The GI50 was > 100 µM (inactive).

What about the GI50 [3] of the same compound?
Its GI50 is > 100 µM (inactive).

And the GI50 [4]?
Its GI50 is > 100 µM (inactive).

And the GI50 [5]?
The GI50 was > 100 µM (inactive).

And the GI50 [6]?
Its GI50 is > 100 µM (inactive).

And the GI50 [7]?
Its GI50 is > 100 µM (inactive).

What about the GI50 [8] of the same compound?
Its GI50 is > 100 µM (inactive).

What about the GI50 [9] of the same compound?
Its GI50 is > 100 µM (inactive).

And the GI50 [10]?
Its GI50 is > 100 µM (inactive).

And the GI50 [11]?
The GI50 was > 100 µM (inactive).

And the GI50 [12]?
Its GI50 is > 100 µM (inactive).

What about the GI50 [13] of the same compound?
The GI50 was > 100 µM (inactive).

And the GI50 [14]?
The GI50 was > 100 µM (inactive).

And the GI50 [15]?
The GI50 was > 100 µM (inactive).

What about the GI50 [16] of the same compound?
The GI50 was > 100 µM (inactive).

And the GI50 [17]?
Its GI50 is > 100 µM (inactive).

What about the GI50 [18] of the same compound?
The GI50 was > 100 µM (inactive).

And the GI50 [19]?
Its GI50 is > 100 µM (inactive).

What about the GI50 [20] of the same compound?
Its GI50 is > 100 µM (inactive).

What about the GI50 [21] of the same compound?
The GI50 was > 100 µM.

And the GI50 [22]?
The GI50 was > 100 µM (inactive).

And the GI50 [23]?
The GI50 was > 100 µM (inactive).

And the GI50 [24]?
The GI50 was > 100 µM (inactive).

What about the GI50 [25] of the same compound?
Its GI50 is > 100 µM (inactive).

And the GI50 [26]?
Its GI50 is > 100 µM (inactive).

And the GI50 [27]?
Its GI50 is < 0.01 µM (active).

And the GI50 [28]?
The GI50 was > 100 µM (inactive).

What about the GI50 [29] of the same compound?
Its GI50 is > 100 µM (inactive).

What about the GI50 [30] of the same compound?
Its GI50 is > 100 µM (inactive).

What about the GI50 [31] of the same compound?
Its GI50 is > 100 µM (inactive).

And the GI50 [32]?
The GI50 was > 100 µM (inactive).

And the GI50 [33]?
The GI50 was > 100 µM (inactive).

What about the GI50 [34] of the same compound?
Its GI50 is > 100 µM (inactive).

What about the GI50 [35] of the same compound?
The GI50 was > 100 µM (inactive).

And the GI50 [36]?
Its GI50 is > 100 µM (inactive).

What about the GI50 [37] of the same compound?
Its GI50 is > 100 µM (inactive).

And the GI50 [38]?
The GI50 was > 100 µM (inactive).

And the GI50 [39]?
Its GI50 is > 100 µM (inactive).

And the GI50 [40]?
Its GI50 is > 100 µM (inactive).

What about the GI50 [41] of the same compound?
The GI50 was > 100 µM (inactive).

And the GI50 [42]?
Its GI50 is > 100 µM (inactive).

And the GI50 [43]?
Its GI50 is > 100 µM (inactive).

And the GI50 [44]?
Its GI50 is > 100 µM (inactive).

What about the GI50 [45] of the same compound?
Its GI50 is > 100 µM (inactive).

What about the GI50 [46] of the same compound?
The GI50 was > 100 µM (inactive).

And the GI50 [47]?
Its GI50 is > 100 µM (inactive).

And the GI50 [48]?
The GI50 was > 100 µM (inactive).

What about the GI50 [49] of the same compound?
The GI50 was > 100 µM (inactive).

Which GI50 [1] does the source give for `Cc1cc(=O)c2c([nH]1)NS(=O)(=O)NC2=O` here?
The GI50 was > 100 µM (inactive).

What about the GI50 [50] of the same compound?
Its GI50 is > 100 µM (inactive).

And the GI50 [51]?
The GI50 was > 100 µM (inactive).

What about the GI50 [2] of the same compound?
Its GI50 is > 100 µM (inactive).

And the GI50 [3]?
The GI50 was > 100 µM (inactive).

And the GI50 [4]?
Its GI50 is > 100 µM (inactive).

What about the GI50 [5] of the same compound?
The GI50 was > 100 µM (inactive).

What about the GI50 [6] of the same compound?
Its GI50 is > 100 µM (inactive).

And the GI50 [7]?
The GI50 was > 100 µM (inactive).

And the GI50 [8]?
Its GI50 is > 100 µM (inactive).

What about the GI50 [9] of the same compound?
Its GI50 is > 100 µM (inactive).

What about the GI50 [12] of the same compound?
Its GI50 is > 100 µM (inactive).

What about the GI50 [13] of the same compound?
The GI50 was > 100 µM (inactive).

And the GI50 [14]?
The GI50 was > 100 µM (inactive).

What about the GI50 [15] of the same compound?
The GI50 was > 100 µM (inactive).

And the GI50 [16]?
The GI50 was > 100 µM (inactive).

And the GI50 [17]?
The GI50 was > 100 µM (inactive).

What about the GI50 [18] of the same compound?
Its GI50 is > 100 µM (inactive).

And the GI50 [19]?
Its GI50 is > 100 µM (inactive).

What about the GI50 [20] of the same compound?
The GI50 was > 100 µM (inactive).

And the GI50 [21]?
The GI50 was > 100 µM.

And the GI50 [22]?
The GI50 was > 100 µM (inactive).

What about the GI50 [23] of the same compound?
The GI50 was > 100 µM (inactive).

And the GI50 [25]?
The GI50 was > 100 µM (inactive).

And the GI50 [26]?
The GI50 was > 100 µM (inactive).

What about the GI50 [52] of the same compound?
Its GI50 is > 100 µM (inactive).

And the GI50 [53]?
Its GI50 is > 100 µM (inactive).

And the GI50 [28]?
The GI50 was > 100 µM (inactive).

And the GI50 [29]?
Its GI50 is > 100 µM (inactive).

And the GI50 [30]?
The GI50 was > 100 µM (inactive).

What about the GI50 [31] of the same compound?
The GI50 was > 100 µM (inactive).

What about the GI50 [33] of the same compound?
The GI50 was > 100 µM (inactive).

And the GI50 [54]?
Its GI50 is > 100 µM (inactive).

What about the GI50 [55] of the same compound?
The GI50 was > 100 µM (inactive).

And the GI50 [35]?
The GI50 was > 100 µM (inactive).

And the GI50 [36]?
Its GI50 is > 100 µM (inactive).

What about the GI50 [37] of the same compound?
Its GI50 is > 100 µM (inactive).

And the GI50 [39]?
Its GI50 is > 100 µM (inactive).

And the GI50 [40]?
The GI50 was > 100 µM (inactive).

And the GI50 [56]?
The GI50 was > 100 µM (inactive).

And the GI50 [41]?
The GI50 was > 100 µM (inactive).

And the GI50 [57]?
Its GI50 is > 100 µM (inactive).

What about the GI50 [43] of the same compound?
Its GI50 is > 100 µM (inactive).

And the GI50 [44]?
Its GI50 is > 100 µM (inactive).

And the GI50 [58]?
Its GI50 is > 100 µM (inactive).

What about the GI50 [45] of the same compound?
Its GI50 is > 100 µM (inactive).

And the GI50 [46]?
Its GI50 is > 100 µM (inactive).

What about the GI50 [47] of the same compound?
Its GI50 is > 100 µM (inactive).

What about the GI50 [49] of the same compound?
The GI50 was > 100 µM (inactive).

What does the source list for `COC1=CC(=O)C2(C=C1OC)OC[C@H]1Oc3c(ccc4c3C=CC(C)(C)O4)C(=O)[C@H]12` (some centres not stated)?
GI50 [51]: 28.4 µM (inactive); GI50 [2]: 47 µM (inactive); GI50 [4]: 60.5 µM (inactive); GI50 [5]: 47.1 µM (inactive); GI50 [6]: 33.3 µM (inactive); GI50 [7]: 15.6 µM (inactive); GI50 [8]: 41.2 µM (inactive); GI50 [9]: 86.5 µM (inactive); GI50 [10]: 46.1 µM (inactive); GI50 [12]: 36.8 µM (inactive); GI50 [13]: 32.1 µM (inactive); GI50 [14]: 40.3 µM (inactive); GI50 [15]: > 100 µM (inactive); GI50 [16]: 36.6 µM (inactive); GI50 [17]: 35.1 µM (inactive); GI50 [18]: 40.3 µM (inactive); GI50 [19]: 37.8 µM (inactive); GI50 [22]: 57 µM (inactive); GI50 [23]: 49.2 µM (inactive); GI50 [24]: 25.2 µM (inactive); GI50 [25]: 27.4 µM (inactive); GI50 [26]: 63.7 µM (inactive); GI50 [52]: 7.64 µM (inactive); GI50 [53]: 42.4 µM (inactive); GI50 [28]: 41.7 µM (inactive); GI50 [29]: 70.1 µM (inactive); GI50 [30]: 35 µM (inactive); GI50 [31]: 27.4 µM (inactive); GI50 [32]: 56.2 µM (inactive); GI50 [59]: 49.2 µM (inactive); GI50 [33]: 37.5 µM (inactive); GI50 [34]: 78.9 µM (inactive); GI50 [55]: 92.7 µM (inactive); GI50 [35]: 79.3 µM (inactive); GI50 [36]: 37.8 µM (inactive); GI50 [37]: 23.7 µM (inactive); GI50 [38]: 44.8 µM (inactive); GI50 [39]: 45.2 µM (inactive); GI50 [40]: 22.6 µM (inactive); GI50 [56]: 40.8 µM (inactive); GI50 [41]: 34.5 µM (inactive); GI50 [42]: > 100 µM (inactive); GI50 [57]: 43.6 µM (inactive); GI50 [44]: 16.7 µM (inactive); GI50 [58]: 68.1 µM (inactive); GI50 [46]: 42.5 µM (inactive); GI50 [47]: 40.9 µM (inactive); GI50 [48]: 30.2 µM (inactive); GI50 [49]: 28.1 µM (inactive)
